Experimental data: publication PMC8003779, “Determination of Cytotoxic Activity of Sanguinaria canadensis Extracts against Human Melanoma Cells and Comparison of Their Cytotoxicity with Cytotoxicity of Some Anticancer Drugs” (Molecules, 2021)
≈ marks a conversion by molar mass, not a printed value. Where two headings read alike, the source gives them in different places.

Assays:
A375 cells = assay: Cell viability (MTT assay), A375 melanoma cells; format: cell-based, human; details: for IC50: Homo sapiens, read-out: IC50 ± SD for Cell Viability, A375
Description: (§1) Cytotoxicity of the plant extracts, berberine, chelerythrine, chelidonine, protopine, and sanguinarine were examined against a panel of three melanoma cell lines (A375, G-361, SK-MEL-3) characterized by different degrees of genetic complexity. Human skin fibroblasts (CRL-1474) were used in order to evaluate the effect of Saguinaria canadensis extracts against normal (i.e., non-cancerous) cells. The investigated cell lines were obtained from American Type Culture Collection (ATCC; Manassas, VA, USA). A375 and CRL-1474 cells were cultured in Dulbecco’s Modified Eagle’s Medium (DMEM) (Sigma Aldrich, St. Louis, MO, USA), supplemented with 10% heat inactivated fetal bovine serum (FBS), penicillin (100 U/mL), and streptomycin (100 µg/mL). Human melanoma SK-MEL-3 and G-361 cells were maintained in McCoy’s 5A Medium (Sigma Aldrich, St. Louis, MO, USA) supplemented with 15% (for SK-MEL-3) or 10% (for G-361) FBS, penicillin (100 U/mL), and streptomycin (100 µg/mL). The cells were maintained at 37 °C in a 5% CO2 atmosphere. The dried plant extracts and standards ([…]) were dissolved in DMSO, in order to obtain stock solutions at concentrations of 50 mg/mL. At the day of the experiment, the suspension of cells (1 × 10^5 cells/mL) in the respective medium was applied to a 96-wellplate at 100 µL per well. After 24 h of incubation, the medium was removed from the wells and replaced by increasing concentrations of plant extracts or standards in medium containing 2% FBS. The control cells were only cultured with a medium containing 2% FBS. Cytotoxicity of DMSO was also checked at concentrations present in respective dilutions of stock solutions. After 24 h of incubation, 15 µL MTT working solution (5 mg/mL in PBS) was added to each well. The plate was incubated for 3 h. Subsequently, 100 µL of 10% SDS solution was added to each well. Cells were incubated overnight at 37 °C to dissolve the precipitated formazan crystals. The concentration of the dissolved formazan was evaluated by measuring the absorbance at λ = 570 nm, using a microplate reader (Epoch, BioTek Instruments, Inc., Winooski, VT, USA). Two independent experiments were performed in triplicates. The results of the MTT assay were expressed as mean ± SD. […] IC50 values of the investigated extracts and alkaloid standards were calculated using the IC50 calculator (www.IC50.tk (accessed on 22 January 2021)).
(§2) To determine the selectivity index (SI), IC50 values for human normal fibroblasts was obtained in the same conditions as that used for cancer cell lines. Selectivity index of each compound was determined by calculating the ratio of IC50 values obtained for human normal fibroblasts and cancer cell lines.

G-361 cells = assay: Cell viability (MTT assay), G-361 melanoma cells; format: cell-based, human; details: for IC50: Homo sapiens, read-out: IC50 ± SD for Cell Viability, G-361
Description: as §1, §2

SK-MEL-3 cells [1] = assay: Cell viability (MTT assay), SK-MEL-3 melanoma cells; format: cell-based, human; details: for IC50: Homo sapiens, read-out: IC50 ± SD for Cell Viability, SK-MEL-3
Description: as §1, §2

SK-MEL-3 cells [2] = assay: Cell proliferation, BrdU incorporation assay; format: cell-based, human; details: 24 h incubation, 0.25–100 µg/mL
Protocol: The antiproliferative effect of S. canadensis extracts was measured by means of the BrdU assay, which indicates the rate of incorporation of 5′-bromo-2′-deoxy-uridine (BrdU) during DNA biosynthesis. In brief, SK-MEL-3 cells were plated in 96-well plates (NUNC, Roskilde, Denmark) at the density of 5 × 10^4 cells/mL. The next day, cells were exposed to increased concentrations (0.25–100 µg/mL) of S. canadensis extracts or cisplatin or a fresh culture medium. Cell proliferation was examined after 24 h incubation, according to the manufacturer’s protocol (Cell Proliferation ELISA BrdU, Roche Diagnostics GmbH, Penzberg, Germany). IC50 values of the investigated extracts and cisplatin were calculated using IC50 calculator [www.IC50.tk (accessed on 11 March 2021)].

[3] = source not given; cited from earlier work
[4] = test system: melanoma cell lines (A375, G-361, SK-MEL-3); assay: Cell viability (MTT assay), all three melanoma cell lines taken together; format: cell-based, human
Description: Cytotoxicity of the plant extracts, berberine, chelerythrine, chelidonine, protopine, and sanguinarine were examined against a panel of three melanoma cell lines (A375, G-361, SK-MEL-3) characterized by different degrees of genetic complexity. Human skin fibroblasts (CRL-1474) were used in order to evaluate the effect of Saguinaria canadensis extracts against normal (i.e., non-cancerous) cells. The investigated cell lines were obtained from American Type Culture Collection (ATCC; Manassas, VA, USA). A375 and CRL-1474 cells were cultured in Dulbecco’s Modified Eagle’s Medium (DMEM) (Sigma Aldrich, St. Louis, MO, USA), supplemented with 10% heat inactivated fetal bovine serum (FBS), penicillin (100 U/mL), and streptomycin (100 µg/mL). Human melanoma SK-MEL-3 and G-361 cells were maintained in McCoy’s 5A Medium (Sigma Aldrich, St. Louis, MO, USA) supplemented with 15% (for SK-MEL-3) or 10% (for G-361) FBS, penicillin (100 U/mL), and streptomycin (100 µg/mL). […] The concentration of the dissolved formazan was evaluated by measuring the absorbance at λ = 570 nm, using a microplate reader (Epoch, BioTek Instruments, Inc., Winooski, VT, USA). […] The results of the MTT assay were expressed as mean ± SD. […] IC50 values of the investigated extracts and alkaloid standards were calculated using the IC50 calculator (www.IC50.tk (accessed on 22 January 2021)).

[5] = A-375, MTT, 24 h exposure, medium with 2% FBS
[6] = G-361, MTT, 24 h exposure, medium with 2% FBS
[7] = SK-MEL3, MTT, 24 h exposure, medium with 2% FBS
[8] = MTT, 24 h exposure, medium with 2% FBS

Row | Compound | IC50 (A375 cells; [5]) [µg/mL] | IC50 (G-361 cells; [6]) [µg/mL] | IC50 (SK-MEL-3 cells [1]; [7]) [µg/mL] | IC50 ± SD for Cell Viability, A375 (A375 cells; [8]) [µg/mL] | IC50 ± SD for Cell Viability, G-361 (G-361 cells; [8]) [µg/mL] | IC50 ± SD for Cell Viability, SK-MEL-3 (SK-MEL-3 cells [1]; [8]) [µg/mL] | Log P [3] | pKa [3] | also measured
1 | COc1cc([C@@H]2c3cc4c(cc3[C@@H](O[C@@H]3O[C@@H]5CO[C@@H](C)O[C@H]5[C@H](O)[C@H]3O)[C@H]3COC(=O)[C@H]23)OCO4)cc(OC)c1O [Etoposide] | 92.3 ± 4.58 (≈ 157 µM) | 52.3 ± 3.86 (≈ 88.9 µM) | > 200 |  |  |  |  |  | 
2 | NC(=O)NO [Hydroxyurea] |  |  |  | >200 | >200 | >200 |  |  | 
3 | N.N.[Cl][Pt][Cl] [Cisplatin] |  |  |  | 10.62 ± 1.04 | 11.53 ± 1.46 | 14.42 ± 1.61 |  |  | IC50 ± SD for Cell Proliferation Measured by BrdU Incorporation in SK-MEL-3 Cells (SK-MEL-3 cells [2]): 24.84 ± 3.60 µg/mL
4 | C[n+]1cc2c3c(ccc2c2ccc4cc5c(cc4c21)OCO5)OCO3 [Sanguinarine] |  |  |  |  |  |  | −0.94 | −4.5 | IC50 (A375 cells; A-375, 24 h): 0.11 ± 0.003 µg/mL; IC50 (G-361 cells; G-361, 24 h): 0.17 ± 0.02 µg/mL; IC50 (SK-MEL-3 cells [1]; SK-MEL3, 24 h): 0.54 ± 0.16 µg/mL
5 | COc1ccc2c(c[n+](C)c3c4cc5c(cc4ccc23)OCO5)c1OC [Chelerythrine] | 0.19 ± 0.04 | 0.46 ± 0.07 | 0.14 ± 0.004 |  |  |  | −0.88 | −4.4 | 
6 | Protopine |  |  |  | >50 | >50 | >50 | 2.59 | 4.95 | IC50, cell viability, across all tested melanoma cell lines ([4]; A375, G-361, SK-MEL-3, 24 h): more than 50 µg/mL
7 | CN1Cc2c(ccc3c2OCO3)[C@@H]2[C@H]1c1cc3c(cc1C[C@@H]2O)OCO3 [Chelidonine] |  |  |  |  |  |  | 2.05 | 5.73 | IC50 (A375 cells; A-375, 24 h): > 50 µg/mL; IC50 (G-361 cells; G-361, 24 h): > 50 µg/mL; IC50 ([4]; Homo sapiens, 24 h, read-out: IC50, cell viability, across all tested melanoma cell lines, A375, G-361, SK-MEL-3): > 50 µg/mL; IC50 (SK-MEL-3 cells [1]; SK-MEL3, 24 h): > 50 µg/mL
8 | COc1ccc2cc3[n+](cc2c1OC)CCc1cc2c(cc1-3)OCO2 [Berberine] | 51.6 ± 4.84 | 21 ± 3.25 | 41 ± 5.36 |  |  |  | −1.3 | −4.4 | 
